Values quoted from earlier work as cited in patent JP2007126392A, “タンパク質のリフォールディング剤” (Sanyo Chemical Industries Ltd, priority 2005, dated 2007).

Details: first acid dissociation constant (pKa1) where several protons dissociate

## O[Si](O)(O)O [ケイ酸]
  pKa: 9.86
